Laboratory results as given in the NIST ThermoML archive (doi:10.1021/je101316g).
Numbers after ± are expanded uncertainties.

conditions: 333.15 K; 101.33 kPa; Liquid; Vibrating tube method

Row | mass density [kg/m3] | SMILES
1 | 1075.1 ± 2.2 | CCCCCCCCCCCCOS(=O)(=O)[O-].CCCCCCn1cc[n+](CCC#N)c1 [3-(2-cyanoethyl)-1-hexyl-1H-imidazolium dodecyl sulfate]
2 | 1199.7 ± 2.4 | CCCCCCn1cc[n+](CCC#N)c1.O=S(=O)([O-])c1ccccc1 [3-(2-cyanoethyl)-1-hexyl-1H-imidazolium benzenesulfonate]

The next lines start with the compound.

Row | SMILES | mass density [kg/m3]
3 | CCCCC(CC)COC(=O)CC(C(=O)OCC(CC)CCCC)S(=O)(=O)[O-].CCCCCC[n+]1ccn(CCC#N)c1 (configuration not stated) | 1064.4 ± 2.5
4 | CCCCCCn1cc[n+](CCC#N)c1.O=C([O-])c1cccc(S(=O)(=O)O)c1 [3-(2-cyanoethyl)-1-hexyl-1H-imidazolium 3-sulfobenzoate] | 1221.8 ± 3.5

same assay, conditions: 338.15 K; 101.33 kPa; Liquid

Row | viscosity [mPa·s] | SMILES
5 | 390.1 ± 44 | CCCCCCCCCCCCOS(=O)(=O)[O-].CCCCCCn1cc[n+](CCC#N)c1 [3-(2-cyanoethyl)-1-hexyl-1H-imidazolium dodecyl sulfate]
6 | 181 ± 13 | CCCCCCn1cc[n+](CCC#N)c1.O=S(=O)([O-])c1ccccc1 [3-(2-cyanoethyl)-1-hexyl-1H-imidazolium benzenesulfonate]

The next lines start with the compound.

Row | SMILES | viscosity [mPa·s]
7 | CCCCCCn1cc[n+](CCC#N)c1.O=S(=O)([O-])C(F)(F)F | 77.4 ± 2.5
8 | CCCCC(CC)COC(=O)CC(C(=O)OCC(CC)CCCC)S(=O)(=O)[O-].CCCCCC[n+]1ccn(CCC#N)c1 (configuration not stated) | 579.4 ± 78
9 | CCCCCCn1cc[n+](CCC#N)c1.O=C([O-])c1cccc(S(=O)(=O)O)c1 [3-(2-cyanoethyl)-1-hexyl-1H-imidazolium 3-sulfobenzoate] | 352.1 ± 38

same assay, conditions: 338.15 K; 101.33 kPa; Liquid; Vibrating tube method

Row | mass density [kg/m3] | SMILES
10 | 1071.9 ± 2.2 | CCCCCCCCCCCCOS(=O)(=O)[O-].CCCCCCn1cc[n+](CCC#N)c1 [3-(2-cyanoethyl)-1-hexyl-1H-imidazolium dodecyl sulfate]
11 | 1196.5 ± 2.4 | CCCCCCn1cc[n+](CCC#N)c1.O=S(=O)([O-])c1ccccc1 [3-(2-cyanoethyl)-1-hexyl-1H-imidazolium benzenesulfonate]

More lines, now with the values behind:

Row | SMILES | mass density [kg/m3]
12 | CCCCCCn1cc[n+](CCC#N)c1.O=S(=O)([O-])C(F)(F)F | 1256.6 ± 4.4
13 | CCCCC(CC)COC(=O)CC(C(=O)OCC(CC)CCCC)S(=O)(=O)[O-].CCCCCC[n+]1ccn(CCC#N)c1 (configuration not stated) | 1061 ± 2.4
14 | CCCCCCn1cc[n+](CCC#N)c1.O=C([O-])c1cccc(S(=O)(=O)O)c1 [3-(2-cyanoethyl)-1-hexyl-1H-imidazolium 3-sulfobenzoate] | 1218.6 ± 3.5

same assay, conditions: 343.15 K; 101.33 kPa; Liquid

Row | viscosity [mPa·s] | SMILES
15 | 274.9 ± 26 | CCCCCCCCCCCCOS(=O)(=O)[O-].CCCCCCn1cc[n+](CCC#N)c1 [3-(2-cyanoethyl)-1-hexyl-1H-imidazolium dodecyl sulfate]
16 | 133.6 ± 7.6 | CCCCCCn1cc[n+](CCC#N)c1.O=S(=O)([O-])c1ccccc1 [3-(2-cyanoethyl)-1-hexyl-1H-imidazolium benzenesulfonate]

Second part, the compound before the results:

Row | SMILES | viscosity [mPa·s]
17 | CCCCCCn1cc[n+](CCC#N)c1.O=S(=O)([O-])C(F)(F)F | 54.8 ± 1.3
18 | CCCCC(CC)COC(=O)CC(C(=O)OCC(CC)CCCC)S(=O)(=O)[O-].CCCCCC[n+]1ccn(CCC#N)c1 (configuration not stated) | 411.4 ± 48
19 | CCCCCCn1cc[n+](CCC#N)c1.O=C([O-])c1cccc(S(=O)(=O)O)c1 [3-(2-cyanoethyl)-1-hexyl-1H-imidazolium 3-sulfobenzoate] | 225.5 ± 19

same assay, conditions: 343.15 K; 101.33 kPa; Liquid; Vibrating tube method

Row | mass density [kg/m3] | SMILES
20 | 1068.8 ± 2.2 | CCCCCCCCCCCCOS(=O)(=O)[O-].CCCCCCn1cc[n+](CCC#N)c1 [3-(2-cyanoethyl)-1-hexyl-1H-imidazolium dodecyl sulfate]
21 | 1193.3 ± 2.4 | CCCCCCn1cc[n+](CCC#N)c1.O=S(=O)([O-])c1ccccc1 [3-(2-cyanoethyl)-1-hexyl-1H-imidazolium benzenesulfonate]

Continued, compound first:

Row | SMILES | mass density [kg/m3]
22 | CCCCCCn1cc[n+](CCC#N)c1.O=S(=O)([O-])C(F)(F)F | 1253.1 ± 4.4
23 | CCCCC(CC)COC(=O)CC(C(=O)OCC(CC)CCCC)S(=O)(=O)[O-].CCCCCC[n+]1ccn(CCC#N)c1 (configuration not stated) | 1057.6 ± 2.4
24 | CCCCCCn1cc[n+](CCC#N)c1.O=C([O-])c1cccc(S(=O)(=O)O)c1 [3-(2-cyanoethyl)-1-hexyl-1H-imidazolium 3-sulfobenzoate] | 1215.4 ± 3.4

same assay, conditions: 348.15 K; 101.33 kPa; Liquid

Row | viscosity [mPa·s] | SMILES
25 | 189.5 ± 14 | CCCCCCCCCCCCOS(=O)(=O)[O-].CCCCCCn1cc[n+](CCC#N)c1 [3-(2-cyanoethyl)-1-hexyl-1H-imidazolium dodecyl sulfate]
26 | 94.6 ± 3.8 | CCCCCCn1cc[n+](CCC#N)c1.O=S(=O)([O-])c1ccccc1 [3-(2-cyanoethyl)-1-hexyl-1H-imidazolium benzenesulfonate]

More lines, now with the values behind:

Row | SMILES | viscosity [mPa·s]
27 | CCCCCCn1cc[n+](CCC#N)c1.O=S(=O)([O-])C(F)(F)F | 40.1 ± 1
28 | CCCCC(CC)COC(=O)CC(C(=O)OCC(CC)CCCC)S(=O)(=O)[O-].CCCCCC[n+]1ccn(CCC#N)c1 (configuration not stated) | 278.6 ± 27
29 | CCCCCCn1cc[n+](CCC#N)c1.O=C([O-])c1cccc(S(=O)(=O)O)c1 [3-(2-cyanoethyl)-1-hexyl-1H-imidazolium 3-sulfobenzoate] | 133.6 ± 7.9

same assay, conditions: 348.15 K; 101.33 kPa; Liquid; Vibrating tube method

Row | mass density [kg/m3] | SMILES
30 | 1065.6 ± 2.2 | CCCCCCCCCCCCOS(=O)(=O)[O-].CCCCCCn1cc[n+](CCC#N)c1 [3-(2-cyanoethyl)-1-hexyl-1H-imidazolium dodecyl sulfate]
31 | 1190.1 ± 2.4 | CCCCCCn1cc[n+](CCC#N)c1.O=S(=O)([O-])c1ccccc1 [3-(2-cyanoethyl)-1-hexyl-1H-imidazolium benzenesulfonate]

More lines, now with the values behind:

Row | SMILES | mass density [kg/m3]
32 | CCCCCCn1cc[n+](CCC#N)c1.O=S(=O)([O-])C(F)(F)F | 1249.2 ± 4.3
33 | CCCCC(CC)COC(=O)CC(C(=O)OCC(CC)CCCC)S(=O)(=O)[O-].CCCCCC[n+]1ccn(CCC#N)c1 (configuration not stated) | 1054.2 ± 2.4
34 | CCCCCCn1cc[n+](CCC#N)c1.O=C([O-])c1cccc(S(=O)(=O)O)c1 [3-(2-cyanoethyl)-1-hexyl-1H-imidazolium 3-sulfobenzoate] | 1212.1 ± 3.4

same assay, conditions: 353.15 K; 101.33 kPa; Liquid

Row | viscosity [mPa·s] | SMILES
35 | 133.6 ± 7.7 | CCCCCCCCCCCCOS(=O)(=O)[O-].CCCCCCn1cc[n+](CCC#N)c1 [3-(2-cyanoethyl)-1-hexyl-1H-imidazolium dodecyl sulfate]
36 | 70 ± 1.9 | CCCCCCn1cc[n+](CCC#N)c1.O=S(=O)([O-])c1ccccc1 [3-(2-cyanoethyl)-1-hexyl-1H-imidazolium benzenesulfonate]

The remaining lines, values behind:

Row | SMILES | viscosity [mPa·s]
37 | CCCCCCn1cc[n+](CCC#N)c1.O=S(=O)([O-])C(F)(F)F | 29.4 ± 0.8
38 | CCCCC(CC)COC(=O)CC(C(=O)OCC(CC)CCCC)S(=O)(=O)[O-].CCCCCC[n+]1ccn(CCC#N)c1 (configuration not stated) | 191.2 ± 15
39 | CCCCCCn1cc[n+](CCC#N)c1.O=C([O-])c1cccc(S(=O)(=O)O)c1 [3-(2-cyanoethyl)-1-hexyl-1H-imidazolium 3-sulfobenzoate] | 92.8 ± 3.8

same assay, conditions: 353.15 K; 101.33 kPa; Liquid; Vibrating tube method

Row | mass density [kg/m3] | SMILES
40 | 1245.8 ± 4.3 | CCCCCCn1cc[n+](CCC#N)c1.O=S(=O)([O-])C(F)(F)F
41 | 1062.6 ± 2.2 | CCCCCCCCCCCCOS(=O)(=O)[O-].CCCCCCn1cc[n+](CCC#N)c1 [3-(2-cyanoethyl)-1-hexyl-1H-imidazolium dodecyl sulfate]
42 | 1050.7 ± 2.4 | CCCCC(CC)COC(=O)CC(C(=O)OCC(CC)CCCC)S(=O)(=O)[O-].CCCCCC[n+]1ccn(CCC#N)c1 (configuration not stated)
